The values below come from US12503448B2, “Antibacterial and antiparasitic quinoxaline-2,3-diamine derivatives” (University College Cardiff Consultants Limited, priority 2019, dated 2025).

Converted amounts (≈) assume the structure as drawn. Where two headings read alike, the source gives them in different places.

The nature of series [1]: Semi thermodynamic solubility. As to conditions: thermodynamic from solid.
A further series deals with S. mansoni schistosomula. As to the kind of experiment: 72 hours schistosomula drug screen. Format: cell-based, Schistosoma mansoni. As to conditions: for Selectivity Index Schistosomula: HepG2 CC50 over schistosomula EC50; for EC50: Schistosoma mansoni. Here is the method: Biological Screening 72 Hours Schistosomula Drug Screen […] G. Colley, […], Schistosoma mansoni: simplified method for the production of schistosomules., Exp. Parasitol. 35 (1974) 44-51. Newly transformed schistosomula were prepared for 72 hour high throughput screening (HTS) in 384-well black-sided microtiter plates (Perkin Elmer, MA, USA) as described in M. Nur-e-alam, M. Yousaf, […]. Bari, H. A. Ghabbour, […]. Ho, A. J. […], Neoclerodane Diterpenoids from […], Teucrium […]. Nat. […] The data obtained in this manner is shown in Table 1 in the columns labelled “Phenotype”, “Motility” and “Schistosomula average”.

In series [2] the test system is F. hepatica newly excysted juveniles (NEJs). As to the kind of experiment: Newly excysted juveniles (NEJs) drug screen. Format: cell-based, Fasciola hepatica. Also on record: scale not given here. As to conditions: 10 μM, 72 h; higher score indicates lower worm activity. Here is the method:
Newly Excysted Juveniles (NEJs) Drug Screen
F. hepatica (Italian strain) metacercariae were obtained from Ridgeway Research, Gloucestershire, UK and stored at 4° C. Newly excysted juveniles (NEJs) from metacercariae were produced based on an optimisation introduced to the excystment method published by Dixon et al. and Wilson et al (Dixon, K. E., The physiology of excystment of the metacercaria of Fasciola hepática L. Parasitology, 1966, 56, 431-456.; Wilson, L. R., Good, R. T., Panaccio, M., Wijffels, G. L., Sandeman, R. M., Spithill, T. W, Fasciola hepatica: Characterization and Cloning of the Major Cathepsin B Protease Secreted by Newly Excysted Juvenile Liver Fluke. Experimental Parasitology 1998, 88, 85-94).
After excystment, NEJs were distributed into a 24 well tissue culture plate at a density of 25 parasites per well containing 1 mL of pre-warmed NEJs culture media. Compounds were added to respective wells and NEJ/compound co-cultures were incubated at 37° C. in an atmosphere containing 5% CO2 for 72 hours at a final concentration of 10 μM.
F. hepatica NEJs (25 per well) were incubated with the three compounds at a concentration of 10 μM (in 0.1% DMSO) and cultured for 72 hrs at 37° C. in an atmosphere containing 5% CO2. Control wells (25 NEJs per well) included those containing 0.1% DMSO (solvent) and RMPI (media) as negative controls or 10 μM Triclabendazole (0.1% DMSO, as positive control, labelled “Tbz” (Comp. 3). After 72 hrs, all NEJs were scored for phenotype and motility metrics. For each treatment, an average of both phenotype and motility score was calculated based on the individual parasite scores (across two independent replicates), wherein a higher score indicates lower worm activity. SD is reported on the bar chart.

Another series relates to E. coli ATCC 25922. Briefly: In vitro antibacterial activity. Format: cell-based. As to conditions: Escherichia coli, ATCC25922.
In the next series the test system is S. aureus ATCC 29213. As to the kind of experiment: In vitro antibacterial activity. Format: cell-based. Particulars: Staphylococcus aureus, ATCC29213.
Series [3] concerns M. smegmatis mc^2 15 ATCC 700084. As to the kind of experiment: In vitro antibacterial activity. Format: cell-based, Mycobacterium smegmatis. Particulars: Mycolicibacterium smegmatis, ATCC700084.
The next series relates to MRSA USA 300. Briefly: In vitro antibacterial activity. Format: cell-based. As to conditions: Staphylococcus aureus.
The subject of the next series is MRSA ATCC 33591. As to the kind of experiment: In vitro antibacterial activity. Format: cell-based. Particulars: Staphylococcus aureus.
A further series concerns MRSA EM RSA. Briefly: In vitro antibacterial activity. Format: cell-based. Particulars: Staphylococcus aureus. The source says: In vitro Determination of Antibacterial Activity
Scientific Reports 8 (1), 2018. Bacterial strains of Enterococcus faecalis—ATCC 29212, NCTC 12201, ATCC 51299; Streptococcus pneumoniae—ATCC 49619, 18778, 21394, 21395; Haemophilus influenza—ATCC 49766, 18391, 17428; Staphylococcus aureus—NCTC 12493, ATCC BAA-077, ATCC 700698, 11051; used for testing the compounds, as previously described in “Clinical laboratory testing and in vitro diagnostics test systems—Susceptibility testing of infectious agents and evaluation of performance of antimicrobial susceptibility devices—Part 1: Reference methods for testing the in vitro activity of antimicrobial agentes against bacteria involved in infectious diseases, ISO/FDIS 20776-1:2006(E). All the procedures were carried out in a biosafety containment level 2.

For series [4], the system named is Pseudomonas aeruginosa ATCC 27853. As to the kind of experiment: In vitro antibacterial activity. Format: cell-based. Particulars: ATCC27853.
The subject of a further series is S. epidermidis NTCT11077. As to the kind of experiment: In vitro antibacterial activity. Format: cell-based. Particulars: Staphylococcus epidermidis.
For a further series, the system named is B. cereus. Briefly: In vitro antibacterial activity. Format: cell-based. Particulars: Bacillus cereus.
The subject of a further series is S. mansoni adult worms. As to the kind of experiment: Adult worm drug screen (WHO scoring, WormassayGP2). Format: cell-based, Schistosoma mansoni. As to conditions: for Selectivity Index Adult: HepG2 CC50 over adult worm EC50; for EC50: Schistosoma mansoni, adult worms. The source says: Mice (MF-1 mice, Harlan, UK), infected 7 weeks previously with 180 cercaria, were euthanised with an intraperitoneal injection of phenobarbital/heparin solution. Adult worms were recovered by perfusion of the portal system and subjected to drug screening as previously described in Padalino G, Ferla S, Brancale A, Chalmers I W, Hoffmann K F. Int J Parasitol Drugs Drug Resist. 2018 December; 8(3):559-570; in Whiteland H L, Chakroborty A, Forde-Thomas J E, Crusco A, Cookson A, Hollinshead J, Fenn C A, Bartholomew B, Holdsworth P A, Fisher M, Nash R J, Hoffmann K F. Int J Parasitol Drugs Drug Resist. 2018 December; 8(3):465-474; and in Crusco A, Bordoni C, Chakroborty A, Whatley K C L, Whiteland H, Westwell A D, Hoffmann K F. Eur J Med Chem. 2018 May 25; 152:87-100. The data obtained in this manner is shown in Table 1 in the columns labelled “Adult worm”.
Regarding the quantification of drug treatment on adult worms (e.g. decreased activity, paralysis or sluggishness), two different approaches were used, as described below. Where egg deposition was noticed, eggs were removed and counted using a Sedgewick rafter slide.
Adult worms were scored using the standardized microscopic WHO-TDR scoring system previously described by Ramirez, B., Bickle, Q., Yousif, F., Fakorede, F., Mouries, M.-A., Nwaka, S. in Schistosomes: Challenges in compound screening, Expert Opin Drug Discov. 2007 October; 2(s1): S53-61. This scoring system (0-4) identifies changes in worm movement and is defined according to the following scoring matrix: 0=no movement, 1=no movement with visible gut peristalsis, 2=minimal movement (occasional movement from anterior or posterior end of the worm), 3=slow continuous movement and 4=normal movement.
A digital image processing-based system was also used to assess parasite motility after drug treatment and is a modification of methods previously described by Marcellino C., Gut, J., Lim, K., Singh R., McKerrow, L. and Sakanari, J. WormAssay: a novel computer application for whole-plate motion-based screening of macroscopic parasites. PLoS Negl Trop Dis. 2012 January:6(1):e1494. This allowed for objective verification of the WHO method described above. The data obtained with this quantification method is shown in Table 1 in the columns labelled “Adult worm”.

The mark [5] stands for this setting: average of phenotype and motility, read-out: EC50 Schistosomula average.
Setting [6] is: schistosomula, 72 hour culture, read-out: EC50 Motility.
[7] abbreviates: schistosomula, 72 hour culture, read-out: EC50 Phenotype.
Setting [8] is: E. coli ATCC 25922, read-out: MIC90.
Setting [9] is: M. smegmatis mc^2 15 ATCC 700084, read-out: MIC90.

In the case of `COC(=O)C1=C(C)NC(C)=C(C(=O)OCCN(C)Cc2ccccc2)C1c1cccc([N+](=O)[O-])c1` (centres unmarked) [Nicardipine, reference compound], the thermodynamic solubility in [1] amounted to 35.4 µM (≈ 17 µg/mL).
Turning to `O=[N+]([O-])c1ccc2nc(NCc3ccccc3)c(NCc3ccccc3)nc2c1` [Compound 13, N^2, N^3-dibenzyl-6-nitroquinoxaline-2,3-diamine], the “Selectivity Index Schistosomula” value in the series with S. mansoni schistosomula is reported as 4. Further, the EC50 is 2920 nM in the series with S. mansoni schistosomula (setting [5]), 2640 nM with S. mansoni schistosomula (setting [6]) and 3190 nM in the series with S. mansoni schistosomula (setting [7]). Further, in [2], the “Motility (M) Mean score” value is listed as 3.14. Further, in series [2], the “Phenotype (P) Mean score” value is reported as 3.14. Besides, the MIC90 (against E. coli ATCC 25922; with S. aureus ATCC 29213; in series [3]) was over 125 µg/mL in each case.
For `Nc1ccc2nc(Nc3ccc(Cl)c(Cl)c3)c(Nc3ccc(Cl)c(Cl)c3)nc2c1` [Compound 15, N^2, N^3-bis(3,4-dichlorophenyl)quinoxaline-2,3,6-triamine], in the series on S. mansoni schistosomula, the “Selectivity Index Schistosomula” value turned out to be 7. The EC50 with S. mansoni schistosomula (setting [6]) was determined as 3250 nM; in the series on S. mansoni schistosomula (setting [7]) it was 3510 nM. Moreover, the “Motility (M) Mean score” value in [2] is 4.86. Also, in series [2], the “Phenotype (P) Mean score” value is reported as 5.09.
Consider `Clc1ccc(Nc2nc3ccc(N4CCCC4)cc3nc2Nc2ccc(Cl)c(Cl)c2)cc1Cl` [Compound 16, N^2, N^3-bis(3,4-dichlorophenyl)-6-(pyrrolidin-1-yl)quinoxaline-2,3-diamine], for which the EC50 in the series on S. mansoni schistosomula (setting [6]) and in the series with S. mansoni schistosomula (setting [7]) was over 10000 nM each time. Besides, in series [2], the “Motility (M) Mean score” value worked out at 2.84. Besides, in series [2], the “Phenotype (P) Mean score” value stood at 2.95. In addition, the MIC90 in the series with E. coli ATCC 25922 was over 125 µg/mL; in the series with S. aureus ATCC 29213, 15.6 µg/mL (≈ 30.1 µM); in series [3], over 125 µg/mL; against MRSA USA 300 it was 62.5 µg/mL (≈ 120 µM); against MRSA ATCC 33591, 31.2 µg/mL (≈ 60.2 µM); against MRSA EM RSA, 62.5 µg/mL (≈ 120 µM). Moreover, the MIC90 (in [4] (Pseudomonas aeruginosa); in the series with S. epidermidis NTCT11077 (NTCT11077); against B. cereus) was over 125 µg/mL throughout.
Take `CC(=O)Nc1ccc2nc(Nc3ccc(Cl)c(Cl)c3)c(Nc3ccc(Cl)c(Cl)c3)nc2c1` [Compound 17, N-(2,3-bis((3,4-dichlorophenyl)amino)quinoxalin-6-yl)acetamide]: the “Selectivity Index Schistosomula” value in the series with S. mansoni schistosomula worked out at 4. Further, the 50% effective concentration (EC50) came out at 2350 nM in the series with S. mansoni schistosomula (setting [5]), 2090 nM in the series with S. mansoni schistosomula (setting [6]), 2600 nM with S. mansoni schistosomula (setting [7]) and 700 nM with S. mansoni adult worms. In addition, in the series on S. mansoni adult worms, the “Selectivity Index Adult” value came to 12. The MIC90 against E. coli ATCC 25922 was over 125 µg/mL; with S. aureus ATCC 29213, 62.5 µg/mL (≈ 123 µM); in [3], over 125 µg/mL; in [4] (Pseudomonas aeruginosa) it was over 125 µg/mL; with S. epidermidis NTCT11077 (NTCT11077), under 62.5 µg/mL; with B. cereus, under 62.5 µg/mL.
Consider `CSc1nc2cc(Cl)c(Oc3cccc(Cl)c3Cl)cc2[nH]1` [Comp. 3, triclabendazole, reference compound], for which, in [2], the “Motility (M) Mean score” value was determined as 4.72 and the “Phenotype (P) Mean score” value stood at 4.72.
In the case of `O=[N+]([O-])c1ccc2nc(Nc3cccc(C(F)(F)F)c3)c(Nc3cccc(C(F)(F)F)c3)nc2c1` [Compound 10, 6-nitro-N^2, N^3-bis(3-(trifluoromethyl)phenyl)quinoxaline-2,3-diamine], the “Selectivity Index Schistosomula” value in the series with S. mansoni schistosomula is 12. In addition, the results for the EC50 in the series on S. mansoni schistosomula (setting [5]), with S. mansoni schistosomula (setting [6]) and with S. mansoni adult worms were 480 nM, 570 nM and 7 nM, respectively. Moreover, the “Selectivity Index Adult” value with S. mansoni adult worms came to 836. In [2], the “Motility (M) Mean score” value is reported as 2.71. The “Phenotype (P) Mean score” value in series [2] worked out at 2.76. Besides, the MIC90 in the series on E. coli ATCC 25922 (setting [8]) is over 125 µg/mL; against S. aureus ATCC 29213, 7.81 µg/mL (≈ 15.8 µM); in series [3] (setting [9]), over 125 µg/mL; against MRSA USA 300, over 125 µg/mL; in the series on MRSA ATCC 33591, over 125 µg/mL; against MRSA EM RSA it was over 125 µg/mL. Also, the MIC90 in [4] (Pseudomonas aeruginosa ATCC 27853, read-out: MIC90) is over 125 µg/mL; with S. epidermidis NTCT11077 (S. epidermidis NTCT11077, read-out: MIC90), over 125 µg/mL; in the series on B. cereus (B. cereus, read-out: MIC90), over 125 µg/mL.
As to `O=[N+]([O-])c1ccc2nc(NCCc3ccccc3)c(NCCc3ccccc3)nc2c1` [Compound 14, 6-nitro-N^2, N^3-diphenethylquinoxaline-2,3-diamine], the EC50 turned out to be 1470 nM in the series on S. mansoni schistosomula (setting [6]) and 2200 nM in the series on S. mansoni schistosomula (setting [7]). Moreover, the “Motility (M) Mean score” value in series [2] came to 4.00. For the same molecule, in [2], the “Phenotype (P) Mean score” value stood at 4.27. For the same molecule, the MIC90 in the series with E. coli ATCC 25922 (setting [8]) was over 125 µg/mL; with S. aureus ATCC 29213 (S. aureus ATCC 29213, read-out: MIC90) it was over 125 µg/mL; in series [3] (setting [9]) it was 31.2 µg/mL (≈ 75.6 µM).
